Consider 16 compounds from US10927098B2, “Hydroxyalkyl-substituted triazole derivatives and uses thereof” (Bayer Pharma Aktiengesellschaft, priority 2016, dated 2021).

Test [1] deals with T1, human V1a receptor (Homo sapiens, UniProt P37288).
T1 construct: expressed in transfected cells; host or cells: CHO K1 (ATCC), also stably transfected with a modified aequorin
The test can be described thus: Cellular in vitro assay for determining vasopressin receptor activity, V1a receptor cell line (aequorin luminescence). The class given is cell-based. Conditions: for IC50: CHO cell line transfected with the human V1a receptor, [Arg8]-vasopressin at EC50 concentration, read-out: IC50 hV1a; for ratio IC50 hV2/hV1a: ratio of the IC50 values at human V2 and human V1a receptor. On the procedure:
(§1) B-1. Cellular In Vitro Assay for Determining Vasopressin Receptor Activity
(§2) The identification of agonists and antagonists of the V1a and V2 vasopressin receptors from humans, rats and dogs as well as the quantification of the activity of the compounds of the invention is carried out using recombinant cell lines. These cell lines originally derive from a hamster's ovary epithelial cell (Chinese Hamster Ovary, CHO K1, ATCC: American Type Culture Collection, Manassas, Va. 20108, USA). The test cell lines constitutively express the human, rat or dog V1a or V2 receptors. In case of the Gαq-coupled V1a receptors, cells are also stably transfected with a modified form of the calcium-sensitive photoproteins aequorin (human and rat V1a) or obelin (dog Via), which, after reconstitution with the cofactor coelenterazine, emit light when there are increases in free calcium concentrations [Rizzuto R, Simpson A W, Brini M, Pozzan T, Nature 358, 325-327 (1992); Illarionov B A, Bondar V S, Illarionova V A, Vysotski E S, Gene 153 (2), 273-274 (1995)]. The resulting vasopressin receptor cells react to stimulation of the recombinantly expressed V1a receptors by intracellular release of calcium ions, which can be quantified by the resulting photoprotein luminescence. The Gs-coupled V2 receptors are stably transfected into cell lines expressing the gene for firefly luciferase under control of a CRE-responsible promoter. Activation of V2 receptors induces the activation of the CRE-responsive promoter via cAMP increase, thereby inducing the expression of firefly luciferase. The light emitted by photoproteins of V1a cell lines as well as the light emitted by firefly luciferase of V2 cell lines corresponds to the activation or inhibition of the respective vasopressin receptor. The bioluminescence of the cell lines is detected using a suitable luminometer [Milligan G, Marshall F, Rees S, Trends in Pharmacological Sciences 17, 235-237 (1996)].
Vasopressin V1a Receptor Cell Lines:
On the day before the assay, the cells are plated out in culture medium (DMEM/F12, 2% FCS, 2 mM glutamine, 10 mM HEPES, 5 μg/ml coelenterazine) in 384-well microtiter plates and kept in a cell incubator (96% humidity, 5% v/v CO2, 37° C.). On the day of the assay, test compounds in various concentrations are placed for 10 minutes in the wells of the microtiter plate before the agonist [Arg^8]-vasopressin at EC50 concentration is added. The resulting light signal is measured immediately in a luminometer.
(§3) Table 1A below lists individual IC50 values for the compounds of the invention (including racemic mixtures as well as separated enantiomers) that were obtained from cell lines transfected with the human V1a or V2 receptor: […]

Test [2] concerns the target T2, human V2 receptor (Homo sapiens, UniProt P30518).
T2 construct: expressed in transfected cells; host or cells: CHO K1 (ATCC) expressing firefly luciferase under a CRE-responsive promoter
Briefly: Cellular in vitro assay for determining vasopressin receptor activity, V2 receptor cell line (CRE-luciferase). The class given is cell-based. Conditions: CHO cell line transfected with the human V2 receptor; [Arg8]-vasopressin at EC50 concentration; read-out: IC50 hV2. On the procedure:
as §1, §2
Vasopressin V2 Receptor Cell Lines:
On the day before the assay, the cells are plated out in culture medium (DMEM/F12, 2% FCS, 2 mM glutamine, 10 mM HEPES) in 384-well microtiter plates and kept in a cell incubator (96% humidity, 5% v/v CO2, 37° C.). On the day of the assay, test compounds in various concentrations and the agonist [Arg^8]-vasopressin at EC50 concentration are added together to the wells, and plates are incubated for 3 hours in a cell incubator. Upon addition of the cell lysis reagent Triton™ and the substrate luciferin, luminescence of firefly luciferase is measured in a luminometer.
as §3

T2 sequence (P30518 whole entry): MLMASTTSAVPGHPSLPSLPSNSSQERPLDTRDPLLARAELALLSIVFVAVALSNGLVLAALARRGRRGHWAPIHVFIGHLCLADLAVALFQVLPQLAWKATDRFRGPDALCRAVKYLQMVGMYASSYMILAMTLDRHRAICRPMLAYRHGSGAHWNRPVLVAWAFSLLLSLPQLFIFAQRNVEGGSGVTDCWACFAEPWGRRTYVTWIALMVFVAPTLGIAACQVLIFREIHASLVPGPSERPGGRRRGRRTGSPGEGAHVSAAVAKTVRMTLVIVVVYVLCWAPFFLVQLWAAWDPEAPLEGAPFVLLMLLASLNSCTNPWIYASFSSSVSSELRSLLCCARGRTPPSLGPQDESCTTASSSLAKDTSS
T1 sequence (P37288 whole entry): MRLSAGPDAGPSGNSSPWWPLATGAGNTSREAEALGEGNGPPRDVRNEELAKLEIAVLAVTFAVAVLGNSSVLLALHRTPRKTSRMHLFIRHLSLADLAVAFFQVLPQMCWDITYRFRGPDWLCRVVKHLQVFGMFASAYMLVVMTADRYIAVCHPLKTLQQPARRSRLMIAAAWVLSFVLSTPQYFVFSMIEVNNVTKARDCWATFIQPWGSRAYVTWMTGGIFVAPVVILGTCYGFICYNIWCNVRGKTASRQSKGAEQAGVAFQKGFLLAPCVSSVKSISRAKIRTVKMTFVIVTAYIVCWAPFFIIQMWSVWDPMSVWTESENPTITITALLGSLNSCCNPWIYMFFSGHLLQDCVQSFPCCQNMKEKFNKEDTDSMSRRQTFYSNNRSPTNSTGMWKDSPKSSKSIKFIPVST

Take `CC(O)(C(=O)O)c1nc(Cn2nc(-c3ccc(Cl)cc3)n(C[C@H](O)C(F)(F)F)c2=O)nn1-c1ccccc1Cl` (single isomer, unassigned) [Example 16]: in test [1], the IC50 is 5.5 nM and the “ratio IC50 hV2/hV1a” value stood at 45.8. Further, the IC50 in test [2] came out at 252 nM.

`CC(C)C(O)c1nc(Cn2nc(-c3ccc(Cl)cc3)n(C[C@H](O)C(F)(F)F)c2=O)nn1-c1ccccc1Cl` (single isomer, unassigned) [Example 9]: the half-inhibitory concentration (IC50) in test [1] amounted to 0.9 nM; in test [2], 25.4 nM. Further, the “ratio IC50 hV2/hV1a” value in test [1] is on record as 28.2.

For `CC(C)C(O)c1nc(Cn2nc(-c3ccc(Cl)cc3)n(C[C@H](O)C(F)(F)F)c2=O)nn1-c1ccccc1Cl` (mixture of isomers) [Example 7, 5-(4-Chlorophenyl)-2-{[1-(2-chlorophenyl)-5-(1-hydroxy-2-methylpropyl)-1H-1,2,4-triazol-3-yl]methyl}-4-[(2S)-3,3,3-trifluoro-2-hydroxypropyl]-2,4-dihydro-3H-1,2,4-triazol-3-one], in test [1], the IC50 came out at 0.8 nM and the “ratio IC50 hV2/hV1a” value is listed as 6.4. The concentration for half-maximal inhibition (IC50) in test [2] was 5.1 nM.

For `CCC(O)c1nc(Cn2nc(-c3ccc(Cl)cc3)n(C[C@H](O)C(F)(F)F)c2=O)nn1-c1ccccc1Cl` (single isomer, unassigned) [Example 6], the IC50 in test [1] came to 0.7 nM; in test [2], 8.4 nM. For the same compound, the “ratio IC50 hV2/hV1a” value in test [1] came out at 12.0.

Consider `CC(C)(O)c1nc(Cn2nc(-c3ccc(Cl)cc3)n(C[C@H](O)C(F)(F)F)c2=O)nn1-c1cccc(Cl)c1` [Example 2, 5-(4-Chlorophenyl)-2-{[1-(3-chlorophenyl)-5-(2-hydroxypropan-2-yl)-1H-1,2,4-triazol-3-yl]methyl}-4-[(2S)-3,3,3-trifluoro-2-hydroxypropyl]-2,4-dihydro-3H-1,2,4-triazol-3-one], for which, in test [1], the half-inhibitory concentration (IC50) is 21.9 nM and the “ratio IC50 hV2/hV1a” value is 0.2. Also, in test [2], the IC50 came out at 3.3 nM.

In the case of `O=c1n(Cc2nc(C(O)C(F)(F)F)n(-c3cccc(Cl)c3)n2)nc(-c2ccc(Cl)cc2)n1C[C@H](O)C(F)(F)F` (mixture of isomers) [Example 10, 5-(4-Chlorophenyl)-2-{[1-(3-chlorophenyl)-5-(2,2,2-trifluoro-1-hydroxyethyl)-1H-1,2,4-triazol-3-yl]methyl}-4-[(2S)-3,3,3-trifluoro-2-hydroxypropyl]-2,4-dihydro-3H-1,2,4-triazol-3-one], in test [1], the IC50 was 13.5 nM and the “ratio IC50 hV2/hV1a” value came to 0.2. In test [2], the half-maximal inhibitory concentration (IC50) is 2.1 nM.

For the compound `O=c1n(Cc2nc(C(O)C(F)(F)F)n(-c3cccc(Cl)c3)n2)nc(-c2ccc(Cl)cc2)n1C[C@H](O)C(F)(F)F` (single isomer, unassigned) [Example 11], in test [1], the IC50 stood at 14.9 nM and the “ratio IC50 hV2/hV1a” value was found to be 0.1. Further, the IC50 in test [2] stood at 1.8 nM.

Consider `CCC(O)c1nc(Cn2nc(-c3ccc(Cl)cc3)n(C[C@H](O)C(F)(F)F)c2=O)nn1-c1ccccc1Cl` (mixture of isomers) [Example 4, 5-(4-Chlorophenyl)-2-{[1-(2-chlorophenyl)-5-(1-hydroxypropyl)-1H-1,2,4-triazol-3-yl]methyl}-4-[(2S)-3,3,3-trifluoro-2-hydroxypropyl]-2,4-dihydro-3H-1,2,4-triazol-3-one], for which, in test [1], the IC50 came to 0.7 nM and the “ratio IC50 hV2/hV1a” value amounted to 6.7. Further, the IC50 in test [2] is 4.7 nM.

With `CC(O)(C(=O)O)c1nc(Cn2nc(-c3ccc(Cl)cc3)n(C[C@H](O)C(F)(F)F)c2=O)nn1-c1ccccc1Cl` (mixture of isomers) [Example 14, 2-[1-(2-Chlorophenyl)-3-({3-(4-chlorophenyl)-5-oxo-4-[(2S)-3,3,3-trifluoro-2-hydroxypropyl]-4,5-dihydro-1H-1,2,4-triazol-1-yl}methyl)-1H-1,2,4-triazol-5-yl]-2-hydroxypropanoic acid], in test [1], the half-maximal inhibitory concentration (IC50) stood at 16.5 nM and the “ratio IC50 hV2/hV1a” value is 4.6. Also, the IC50 in test [2] was found to be 76 nM.

Regarding `COc1ccccc1-n1nc(Cn2nc(-c3ccc(Cl)cc3)n(C[C@H](O)C(F)(F)F)c2=O)nc1C(C)(C)O` [Example 3, 5-(4-Chlorophenyl)-2-{[5-(2-hydroxypropan-2-yl)-1-(2-methoxyphenyl)-1H-1,2,4-triazol-3-yl]methyl}-4-[(2S)-3,3,3-trifluoro-2-hydroxypropyl]-2,4-dihydro-3H-1,2,4-triazol-3-one], the IC50 turned out to be 0.8 nM in test [1] and 1.9 nM in test [2]. Besides, in test [1], the “ratio IC50 hV2/hV1a” value is recorded as 2.4.

Take `CC(C)(O)c1nc(Cn2nc(-c3ccc(Cl)cc3)n(C[C@H](O)C(F)(F)F)c2=O)nn1-c1ccccc1Cl` [Example 13, 5-(4-Chlorophenyl)-2-{[1-(2-chlorophenyl)-5-(2-hydroxypropan-2-yl)-1H-1,2,4-triazol-3-yl]methyl}-4-[(2S)-3,3,3-trifluoro-2-hydroxypropyl]-2,4-dihydro-3H-1,2,4-triazol-3-one]: the IC50 in test [1] amounted to 2.1 nM; in test [2] it was 6.9 nM. In addition, the “ratio IC50 hV2/hV1a” value in test [1] is on record as 3.3.

As for `O=c1n(Cc2nc(C(O)C(F)(F)F)n(-c3cccc(Cl)c3)n2)nc(-c2ccc(Cl)cc2)n1C[C@H](O)C(F)(F)F` (single isomer, unassigned) [Example 12], in test [1], the IC50 stood at 2.2 nM and the “ratio IC50 hV2/hV1a” value is 15.8. In addition, the IC50 in test [2] amounted to 34.8 nM.

`CC(O)(C(=O)O)c1nc(Cn2nc(-c3ccc(Cl)cc3)n(C[C@H](O)C(F)(F)F)c2=O)nn1-c1ccccc1Cl` (single isomer, unassigned) [Example 15]: the IC50 was found to be 3.5 nM in test [1] and 26.5 nM in test [2]. For the same compound, the “ratio IC50 hV2/hV1a” value in test [1] turned out to be 7.6.

As for `CC(C)C(O)c1nc(Cn2nc(-c3ccc(Cl)cc3)n(C[C@H](O)C(F)(F)F)c2=O)nn1-c1ccccc1Cl` (single isomer, unassigned) [Example 8], the concentration for half-maximal inhibition (IC50) in test [1] worked out at 0.6 nM; in test [2], 2.2 nM. Besides, the “ratio IC50 hV2/hV1a” value in test [1] is recorded as 3.7.

With `CC(C)(O)c1nc(Cn2nc(-c3ccc(Cl)cc3)n(C[C@H](O)C(F)(F)F)c2=O)nn1-c1cccc(F)c1` [Example 1, 5-(4-Chlorophenyl)-2-{[1-(3-fluorophenyl)-5-(2-hydroxypropan-2-yl)-1H-1,2,4-triazol-3-yl]methyl}-4-[(2S)-3,3,3-trifluoro-2-hydroxypropyl]-2,4-dihydro-3H-1,2,4-triazol-3-one], in test [1], the half-maximal inhibitory concentration (IC50) was 6.6 nM and the “ratio IC50 hV2/hV1a” value turned out to be 3.8. Also, in test [2], the 50% inhibitory concentration (IC50) was 24.9 nM.

On to `CCC(O)c1nc(Cn2nc(-c3ccc(Cl)cc3)n(C[C@H](O)C(F)(F)F)c2=O)nn1-c1ccccc1Cl` (single isomer, unassigned) [Example 5], for which, in test [1], the IC50 stood at 1.6 nM and the “ratio IC50 hV2/hV1a” value turned out to be 2.6. Also, the 50% inhibitory concentration (IC50) in test [2] came out at 4.2 nM.
